For this assay, the target named is T1, TRPC5:C5 (Homo sapiens, UniProt Q9UL62).
T1 construct: expressed in transfected cells; host or cells: HEK T-REx (tetracycline-induced)
T1 sequence (Q9UL62 1-973): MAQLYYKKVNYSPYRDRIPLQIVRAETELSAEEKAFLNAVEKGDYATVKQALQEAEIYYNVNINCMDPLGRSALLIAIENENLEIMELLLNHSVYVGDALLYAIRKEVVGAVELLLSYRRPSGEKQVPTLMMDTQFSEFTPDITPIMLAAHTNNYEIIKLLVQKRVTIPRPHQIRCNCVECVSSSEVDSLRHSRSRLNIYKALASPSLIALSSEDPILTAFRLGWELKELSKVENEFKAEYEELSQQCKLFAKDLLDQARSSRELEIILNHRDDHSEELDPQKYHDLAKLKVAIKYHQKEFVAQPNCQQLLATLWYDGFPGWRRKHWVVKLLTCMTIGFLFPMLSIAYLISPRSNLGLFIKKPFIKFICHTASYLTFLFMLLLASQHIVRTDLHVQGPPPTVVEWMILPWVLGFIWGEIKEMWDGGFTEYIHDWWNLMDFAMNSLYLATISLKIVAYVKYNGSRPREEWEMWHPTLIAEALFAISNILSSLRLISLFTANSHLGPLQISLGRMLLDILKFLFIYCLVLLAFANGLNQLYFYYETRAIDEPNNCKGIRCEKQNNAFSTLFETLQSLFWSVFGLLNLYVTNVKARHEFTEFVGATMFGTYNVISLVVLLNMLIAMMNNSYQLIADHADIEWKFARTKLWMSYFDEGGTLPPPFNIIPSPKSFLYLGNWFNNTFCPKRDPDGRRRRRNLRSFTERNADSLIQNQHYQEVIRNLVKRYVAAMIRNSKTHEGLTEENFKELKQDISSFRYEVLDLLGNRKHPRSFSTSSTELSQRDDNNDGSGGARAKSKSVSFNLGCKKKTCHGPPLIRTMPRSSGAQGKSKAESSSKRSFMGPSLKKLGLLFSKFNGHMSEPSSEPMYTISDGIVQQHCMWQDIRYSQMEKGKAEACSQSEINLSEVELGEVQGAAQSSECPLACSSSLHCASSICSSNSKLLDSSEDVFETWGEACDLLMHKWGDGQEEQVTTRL
The assay is described as follows: [Ca2+]i recordings (Fura-2), TRPC5:C5 in HEK T-REx cells. It is filed as cell-based. Particulars: for IC50: HEK T-REx, 30 min preincubation. As to the method:
Based on the findings described above, we wondered whether AC1903—which is typically used as a TRPC5 inhibitor at concentrations of 30–100 μM in cellular assays ([29], [56])—might have limited selectivity for TRPC5 channels and whether its effect on intracellular G418 levels and PTC readthrough might be the consequence of inhibition of other or multiple targets. All well-characterized TRPC channel inhibitors reported to date modulate multiple TRP(C) channels ([34], [35], [36]). […] Because limited data for the selectivity of AC1903 are available in the public domain, we decided to profile AC1903 against a selection of calcium-permeable cation channels by intracellular calcium ([Ca^2+]i) recordings using well-characterized cell lines and TRP channel activators ([46], [57], [58]), and the Ca^2+ indicator Fura-2. In these assays, cells (HEK 293, HEK T-REx, or CHO) overexpressing the relevant ion channel protein and loaded with Fura-2 AM (a cell-permeable precursor of Fura-2) were preincubated with various concentrations of AC1903 or vehicle (DMSO) for 30 min. Then, changes in ratiometric fluorescence (from background) were recorded upon addition of the respective ion channel activator.
Figure 4 AC1903 inhibits multiple TRP channels.A and C, representative [Ca^2+]i measurements from a single 96-well plate (N = 6; mean ± SD over technical replicates) showing inhibition of EA-mediated [Ca^2+]i responses by 0.1 to 100 μM AC1903 in (Tet+) HEK T-REx cells expressing TRPC5 (A) or TRPC4 (C). B and D, concentration–response data for experiments in (A) and (C) (scatter plots showing normalized data for three independent experiments; n/N = 3/18). Responses were calculated at 250 to 295 s compared to [Ca^2+]i at baseline (0–55 s). E and G, representative [Ca^2+]i measurements from a single 96-well plate (N = 6; mean ± SD over technical replicates) showing inhibition of OAG-mediated [Ca^2+]i responses by 0.1 to 100 μM AC1903 in (Tet+) HEK T-REx cells expressing TRPC3 (E) and WT HEK 293 cells transiently expressing TRPC6 (G). F and H, concentration–response data for experiments in (E) and (G) (scatter plots showing normalized data for three independent experiments; n/N = 3/18). Responses were calculated at 90 to 110 s compared with [Ca^2+]i at baseline (0–55 s). I, representative [Ca^2+]i measurements from a single 96-well plate (N = 6; mean ± SD over technical replicates) showing inhibition of the 4α-PDD-mediated [Ca^2+]i response by 0.1 to 100 μM AC1903 in CHO cells stably expressing TRPV4. J, concentration–response data for experiments in (I) (scatter plot showing normalized data for three independent experiments; n/N = 3/18). Responses were calculated at 290 to 300 s compared with [Ca^2+]i baseline (0–55 s). EA, (-)-englerin A; TRPC, transient receptor potential canonical. […]

Among the data in publication PMC8808171, “Nonselective TRPC channel inhibition and suppression of aminoglycoside-induced premature termination codon readthrough by the small molecule AC1903” (The Journal of Biological Chemistry, 2022) are IC50 and Hill slope values, retold here.

Broadly, the IC50 is the point on the concentration scale where inhibition reaches its midpoint. Read a low IC50 as greater potency in that assay. The Hill slope is a measure of the steepness of the concentration-response curve. Turning to `c1ccc(Cn2c(NCc3ccco3)nc3ccccc32)cc1` [AC1903], the IC50 is, setting by setting: (activator EA (30 nM)) 18 µM; (activator S1P (10 μM)) 3.5 µM. This molecule also registered a Hill slope (activator EA (30 nM)) of -1.8 and a Hill slope (activator S1P (10 μM)) of -1.6.
